Data: patent US8647644B1, “Methods of using capped mesoporous silicates” (Iowa State University Research Foundation, Inc., priority 2006, dated 2014)
Structures can show the parent of a compound that is named as a salt.

How the values were obtained:
[1] = DTT-induced drug/neurotransmitter release study (HPLC); type: physicochemical; conditions: for release within 24 hours as share of total release seen in 3 days: from CdS-capped MSN after 18.5 mM DTT; for amount released after 3 days of DTT-induced uncapping / encapsulated molecule released after 3 days of DTT-induced uncapping: from CdS-capped MSN, PBS pH 7.4
Procedure: CdS-capped MSN with vancomycin or ATP (10.00 mg) material was dispersed in 1.50 mL of PBS buffer (pH 7.4), followed by repeating wash/sonication/centrifugation cycles for five times to remove physisorbed, uncapped vancomycin or ATP molecules on the exterior surface of the material. The purified MSN/drug composite was redispersed in 3.50 mL of PBS buffer (pH 7.4). Aliquots were taken every 4 hours over a time period of 12 hours from the MSN/water suspension and injected to an analytical HPLC system (Hitachi LC/3DQMS with a reverse phase C18 column (Vydac), 0.4 cm×25 cm) to monitor the leaching of the mesoporous channel encapsulated vancomycin or ATP molecules. After 12 hours, dithiothreitol (DTT, 18.50 mM) was added to the suspension to cleave the disulfide linkage between the CdS nanoparticle and the MSN. The kinetic profiles of the DTT-induced release of vancomycin and ATP were monitored by following two literature-reported HPLC separation conditions. The peaks/areas at 280 and 258 nm were monitored/integrated for the quantitative analysis of amounts of released vancomycin and ATP, respectively. See Farin et al., J. Pharm. Biomed. Anal. 1998, 18:367; and Veciana-Nogues et al., Food Chem. 1997, 59:467.

[2] = Loading of vancomycin and ATP into linker-MSN with CdS capping, HPLC of filtrate; type: physicochemical; conditions: for loading efficiency: CdS-capped linker-MSN; for amount of mesopore-encapsulated molecule: per 100.0 mg of linker-MSN material, from concentration decrease in filtrate
Procedure: Purified linker-MSN material from sub-part (b) below (100.00 mg) was incubated in a PBS buffer solution (0.60 mL, pH 7.4) of ATP or vancomycin (3.00 μmol in both cases) for 24 hours. Mercaptoacetic acid-functionalized CdS nanoparticles from sub-part (c) below (0.15 mmol) were dissolved in 2.00 mL of PBS buffer with vancomycin or ATP (0.01 mmol in both cases); 1-[3-(dimethylamino)propyl]-3-ethylcarbodiimide hydrochloride (EDC) (57.50 mg, 0.30 mmol) was added to the CdS/drug solution. The reaction mixture was allowed to stir for 24 hours, followed by centrifuging the suspension at 12,000 rpm for 3 minutes. The resulting precipitates (ATP- or vancomycin-loaded, CdS-capped MSNs) were isolated and dried under vacuum.
The water-soluble CdS nanocrystals (average particle diameter of 2.0 nm) with mercaptoacetic acid groups were covalently captured and formed amide bonds by reacting with the mesopore surface-bound 2-(propyldisulfanyl)ethylamine linkers of the MSN/drug composite material in aqueous solutions. The resulting reaction suspensions were centrifuged, and the CdS-capped MSN/drug composite materials along with the unreacted CdS nanoparticles were filtered. The concentrations of the free vancomycin and ATP molecules in the filtrate were then determined by HPLC. The calculated concentration decreases of solution vancomycin and ATP were attributed to the amounts of mesopore-encapsulated vancomycin (2.5 μmol) and ATP (4.7 μmol) per 100.0 mg of linker-MSN material. These numbers correspond to ca. 83.9 and 30.3 mol % loading efficiency, respectively.

[3] = test system: tobacco mesophyll protoplasts; assay: Endocytosis experiments with tobacco mesophyll protoplasts (Example 11); type: cell-based, Nicotiana tabacum; conditions: 1 mM LYCH, overnight in W5
Procedure: Tobacco protoplasts were mixed with MSN in W5 media (Spangenberg et al., supra) using 10^6 cells for 10 μg of MSN. The mix was incubated overnight in 3 mL of W5 in BD Falcon 6-well flat-bottom plates. To remove non-engulfed MSN (except for FIG. 20A), the mixture were overlaid on K4 medium (Spangenberg et al., supra) and centrifuge at 100×g for 10 minutes at room temperature. The protoplasts at the interphase were collected and evaluated. Isolated live cells experiments images were taken using a 63× oil objective with a Leica TCS/NT laser scanning confocal microscope equipped with Argon 488 nm and Krypton 568 nm lasers plus a double dichroic DD488/568 filter. To detect fluorescence in the green channel, a combination of RSP580 and BP525/25 filters was used under wavelength between 500 and 550 nm. For the red channel, wavelength above 590 nm was selected using a LP590 filter. During scanning, pinhole was maintained at 1 for all images. Images were acquired using TCS software and analyzed using ImageJ (Abramoff et al., Biophotonics Int'l 2004, 11:36). Whole tissue images were taken under either bright field or GFP band pass exciter 460-490 nm with emission filter 510-550 nm using an Olympus SHZ10 stereoscope coupled to a SPOT RT color CCD camera (Diagnostic Instrument Inc.). Images were acquired with SPOT software.

[4] = test system: protoplasts; conditions: 1-2 mg of DNA per 10^6 cells; cited from earlier work
[5] = test system: type-1 astrocytes; assay: Intracellular calcium imaging (Fura-2) of astrocyte cultures; conditions: no MSNs
Procedure: After incubation, tissue was rinsed with EBSS solution and incubated for 5 minutes in trypsin-inhibitor solution (1 mg/mL; Gibco-Invitrogen Co.). After being rinsed, once with EBSS solution and once with culture medium (consisting of α-minimum essential medium (α-MEM; Gibco-Invitrogen Co.) supplemented with 10% heat-inactivated fetal bovine serum (FBS; Gibco-Invitrogen Co.) and 1.00 mL of penicillin-streptomycin solution (Sigma-Aldrich Co.) per 100 mL), the tissue was mechanically dispersed in culture medium by triturating through a fire-polished glass pipet. The cell suspension was transferred to sterile 15-mL centrifuge tubes and spun at 1000 g for 10 minutes. Cell pellets were resuspended in culture medium (α-MEM supplemented with 10% heat-inactivated FBS and 1.00 mL of penicillin-streptomycin solution per 100.00 mL) and plated in culture flasks. […] Culture medium was changed every 2 to 3 days. When mixed cultures reached confluence (9-12 days), the flasks were shaken (260 rpm) for 90 minutes to remove microglia and dividing type I astroglia. After shaking the cells, medium was replaced, and the flasks were incubated for 1 hour to equilibrate with CO2 in the fresh medium. […]
The effect of experimental manipulation on the intracellular calcium concentration ([Ca^2+]i) of cultured cells was evaluated by ratiometric imaging techniques. […]

## CN[C@H](CC(C)C)C(=O)N[C@H]1C(=O)N[C@@H](CC(N)=O)C(=O)N[C@H]2C(=O)N[C@H]3C(=O)N[C@H](C(=O)N[C@H](C(=O)O)c4cc(O)cc(O)c4-c4cc3ccc4O)[C@H](O)c3ccc(c(Cl)c3)Oc3cc2cc(c3O[C@@H]2O[C@H](CO)[C@@H](O)[C@H](O)[C@H]2O[C@H]2C[C@](C)(N)[C@H](O)[C@H](C)O2)Oc2ccc(cc2Cl)[C@H]1O [vancomycin, Vancomycin hydrochloride]
[1]
  release within 24 hours as share of total release seen in 3 days: 85%
  amount released after 3 days of DTT-induced uncapping: 1.6 µmol
  encapsulated molecule released after 3 days of DTT-induced uncapping: 53.8%
[2]
  loading efficiency: ca. 83.9 mol %
  amount of mesopore-encapsulated molecule: 2.5 µmol

## Lucifer Yellow CH, lithium salts
[3]
  protoplasts that underwent endocytosis: 26±7%

## polyethylene glycol [polyethylene glycol (PEG)]
[4]
  transient transformation efficiency: 40-90%

## OCCS [ME]
[5]; perfusion 1.0 mM for 5 minutes
  change of intracellular [Ca2+]i: no increase in [Ca^2+]i

## Nc1ncnc2c1ncn2[C@@H]1O[C@H](COP(=O)([O-])OP(=O)([O-])OP(=O)(O)O)[C@@H](O)[C@H]1O.[Na+].[Na+] [ATP, adenosine triphosphate disodium salt]
[1]
  release within 24 hours as share of total release seen in 3 days: 85%
  amount released after 3 days of DTT-induced uncapping: 1.3 µmol
  encapsulated molecule released after 3 days of DTT-induced uncapping: 28.2%
[2]
  loading efficiency: ~30.3 mol %
  amount of mesopore-encapsulated molecule: 4.7 µmol
[5]; 100.0 μM, ME-treated astrocytes
  change of intracellular [Ca2+]i: obvious increases in [Ca^2+]i
